Measured values reported in ChEMBL document CHEMBL1149530, “Design and synthesis of a new, conformationally constrained, macrocyclic small-molecule inhibitor of STAT3 via 'click chemistry'” (Bioorg Med Chem Lett, 2007).
Where a SMILES comes first, the peptide text is derived from it. Bridges are numbered along the chain shown (N, C = ends). Triazole bridges read from a SMILES are 1,4-linked. [ ]: non-standard residue; d: D form. pY = N[C@@H](Cc1ccc(OP(=O)(O)O)cc1)C(=O)O; Lys(N3) = [N-]=[N+]=NCCCC[C@H](N)C(=O)O; Pra = C#CC[C@H](N)C(=O)O

Biological target: Signal transducer and activator of transcription 3 (Homo sapiens, UniProt P40763)
Assay: Binding affinity to recombinant STAT3 by fluorescence polarization based binding assay

Sequence of Signal transducer and activator of transcription 3 (P40763 whole entry): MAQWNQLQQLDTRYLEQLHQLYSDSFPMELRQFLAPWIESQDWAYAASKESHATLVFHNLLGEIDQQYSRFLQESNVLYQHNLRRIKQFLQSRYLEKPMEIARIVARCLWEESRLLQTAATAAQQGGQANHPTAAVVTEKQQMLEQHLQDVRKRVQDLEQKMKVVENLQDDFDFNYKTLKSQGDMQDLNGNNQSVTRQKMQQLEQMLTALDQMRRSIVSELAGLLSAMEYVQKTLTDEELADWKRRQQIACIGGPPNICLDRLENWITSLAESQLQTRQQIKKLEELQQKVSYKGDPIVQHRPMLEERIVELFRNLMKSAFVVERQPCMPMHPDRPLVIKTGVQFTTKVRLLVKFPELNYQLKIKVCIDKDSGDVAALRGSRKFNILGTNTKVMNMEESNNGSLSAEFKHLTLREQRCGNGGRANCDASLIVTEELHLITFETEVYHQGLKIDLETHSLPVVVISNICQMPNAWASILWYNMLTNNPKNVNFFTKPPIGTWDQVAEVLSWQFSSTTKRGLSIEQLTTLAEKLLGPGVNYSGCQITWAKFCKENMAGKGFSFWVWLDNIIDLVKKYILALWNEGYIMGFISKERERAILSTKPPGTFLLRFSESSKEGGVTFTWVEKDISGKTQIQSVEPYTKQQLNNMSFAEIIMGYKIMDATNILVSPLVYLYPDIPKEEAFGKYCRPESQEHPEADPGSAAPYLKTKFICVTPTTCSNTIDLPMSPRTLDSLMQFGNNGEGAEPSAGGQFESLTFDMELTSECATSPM

| SMILES | Ki [µM] |
| --- | --- |
| CC(=O)N[C@@H](Cc1ccc(OP(=O)(O)O)cc1)C(=O)N[C@@H](CC(C)C)C(=O)N[C@H]1CCCCn2cc(nn2)C[C@@H](C(=O)N[C@@H](Cc2ccccc2)C(N)=O)NC(=O)[C@H]([C@@H](C)O)NC1=O (Ac-[pY]L[Lys(N3)]T[Pra]F-NH2; triazole 3-5) | 7.3 |
| CC(=O)N[C@@H](Cc1ccc(OP(=O)(O)O)cc1)C(=O)N[C@@H](CC(C)C)C(=O)N[C@@H](CCCCN)C(=O)N[C@H](C(=O)N[C@@H](CCCCN)C(=O)N[C@@H](Cc1ccccc1)C(N)=O)[C@@H](C)O (HELM PEPTIDE1{[ac].[O=C([C@H](Cc1ccc(OP(=O)(O)O)cc1)N[*:1])[*:2]].L.K.T.K.F.[am]}$$$$V2.0) | 25.9 |
